Experimental data: US5079358A, “6H-pyrazolo-[4,5,1-d,e]acridin-6-one derivatives having anit-tumor activity” (Kyowa Hakko Kogyo Co., Ltd., priority 1988, dated 1992)
≈ marks a conversion by molar mass, not a printed value.

How the values were obtained:
P388 ascites tumor = test: Effect on P388 ascites tumor (increased life span); assay type: in vivo; conditions: P388, ip, intraperitoneal, 24 hours after implantation, male CDF1 mouse
Experimental: Effect on P388 ascites tumor:
P388 tumor cells (10^6 cells) were implanted intraperitoneally into a DBA/2 mouse and the cells were collected from the ascitic fluid of the animal 7 days after the implantation. The cells were ashed once with sterilized physiological saline solution and then suspended in a sterilized physiological saline solution to prepare a cell suspension containing 5×10^6 cells/ml. The suspension (0.2 ml) was intraperitoneally inoculated into a male CDF1 mouse aged 6 weeks. A test compound was dissolved in physiological saline solution and intraperitoneally administered to the animal 24 hours after implantation of the tumor cells. One test group comprised 5 mice. The mean survival time (days) of a test group which received a test compound at a specified concentration was calculated as T from survival days of animals in the group. ON the other hand, the mean survival time (days) of the non-administered group (C) was obtained in the same manner, and the increased life span (ILS %) was calculated as [(T-C)/C]×100 (%).

[1] = Acute toxicity (LD50), single intravenous administration to male ddy mice; conditions: mouse, in vivo, 14 days observation, Probit's method
Experimental: A test compound was administered intravenously once to male ddy mice. One test group comprised ten mice. […] LD50 was calculated from the death rate of each group in accordance with Probit's method.

[2] = tested on: human cancer cells (HeLaS3); test: Inhibitory effect on growth of human cancer cells (HeLaS3); assay type: cell-based; conditions: Homo sapiens, HeLa S3, 72 hours at 37° C., Neutral Red staining, 550 nm, read-out: IC50
Experimental: Inhibitory effect on growth of human cancer cells (HeLaS3):
HeLaS, cells were suspended in a medium comprising MEM medium (Nissui Pharmaceutical Co., Ltd.) and 2 mM glutamine (hereinafter referred to as Medium A) to a concentration of 3×10^4 cells/ml. The cell suspension thus prepared was put into wells of a 96-well microtiter plate in an amount of 0.1 ml/well. The cells on the plate were incubated in a CO2 -incubater at 37° C. for 20 hours, and 0.05 ml of a sample containing a test compound and appropriately diluted with Medium A was added to each well. The cells were further incubated in the CO2 -incubater at 37° C. for 72 hours. After the culture supernatant was removed, a medium comprising Medium A and 0.02% Neutral Red was added to the residue in an amount of 0.1 ml/well, followed by incubation at 37° C. for one hour in the CO2 -incubater, whereby the cells were stained. The culture supernatant was removed and the residue was washed once with physiological saline solution. The pigment was extracted with 0.001 N-HCl/30%-ethanol, and the absorbance was determined at 550 nm with a microplate reader. The absorbance determined for intact cells was compared with that for the cells treated with the test compound of a known concentration, and the concentration of the test compound for inhibiting 50% growth of the cells (IC50) was calculated.

NCCNCc1nn2c3cccc(O)c3c(=O)c3c(NCCN)ccc1c32 [Compound 28, 5-(2-Aminoethyl)amino-2-(2-aminoethyl)aminomethyl-7-hydroxy-6H-pyrazolo[4,5,1-d,e]acridin-6-one]
ILS at 12.5 mg/kg (P388 ascites tumor; dose 12.5 mg/kg): > 154% | LD50 at 336 h [1]: 15.7 mg/kg

NCCNCc1nn2c3cccc(O)c3c(=O)c3c(NCCNCCO)ccc1c32 [Compound 46, 2-(2-Aminoethyl)aminomethyl-7-hydroxy-5-[2-(2-hydroxyethylamino)ethyl]amino-6H-pyrazolo[4,5,1-d,e]acridin-6-one]
ILS at 25 mg/kg (P388 ascites tumor): > 156% | IC50 [2]: 3 ng/mL (≈ 7.31 nM)

NCCNCCNc1ccc2c(CNCCN)nn3c4cccc(O)c4c(=O)c1c23 [Compound 48, 5-[2-(2-Aminoethylamino)ethyl]amino-2-(2-aminoethyl)aminomethyl-7-hydroxy-6H-pyrazolo[4,5,1-d,e]acridin-6-one]
ILS at 50 mg/kg (P388 ascites tumor; dose 50 mg/kg): > 200% | IC50 [2]: 2.6 ng/mL (≈ 6.35 nM)

CN(C)CCNc1ccc2c(CN(CCO)CCO)nn3c4cccc(O)c4c(=O)c1c23 [Compound 51, 2-Bis(2-hydroxyethyl)aminomethyl-5-(2-dimethylaminoethyl)amino-7-hydroxy-6H-pyrazolo[4,5,1-d,e]acridin-6-one]
ILS at 25 mg/kg (P388 ascites tumor): > 186% | LD50 at 336 h [1]: 15.7 mg/kg

NCCNc1ccc2c(CN(CCO)CCO)nn3c4cccc(O)c4c(=O)c1c23 [Compound 53, 5-(2-Aminoethyl)amino-2-bis(2-hydroxyethyl)aminomethyl-7-hydroxy-6H-pyrazolo[4,5,1-d,e]acridin-6-one]
ILS at 25 mg/kg (P388 ascites tumor): > 100% | LD50 at 336 h [1]: 25 mg/kg

O=c1c2c(O)cccc2n2nc(CNCCN3CCOCC3)c3ccc(NCCN4CCOCC4)c1c32 [Compound 56, 7-Hydroxy-5-(2-morpholinoethyl)amino-2-(2-morpholinoethyl)aminomethyl-6H-pyrazolo[4,5,1-d,e]acridin-6-one]
ILS at 100 mg/kg (P388 ascites tumor; dose 100 mg/kg): 121% | IC50 [2]: 260 ng/mL (≈ 513 nM)
